# Reference: patent US6605637B1, “Lipoic acid derivatives, their preparation, and pharmaceutical compositions containing them” (Societe de Conseils de Recherches et d'Applications …, priority 1999, dated 2003)
# pEC50: −log10 of the molar value. Structures can show the parent of a compound that is named as a salt.
# Test system: HT-22 cells
# Assay: Protection of HT-22 cells from oxidation stress induced by glutamate (MTT viability)
# Assay type: cell-based
# Conditions: HT-22 mouse hippocampal line; glutamate 5 mM; viability after 24 h by MTT
# Procedure: Study of the Effects on the Oxidation Stress Induced by Glutamate on Cells in Culture (HT-22).
# The inhibitory activity of the products of the invention is determined by measuring their ability to protect the cells of a mouse hippocampal line (HT-22) of an oxidation stress caused by glutamate. The biosynthesis of glutathione, an essential element of cell detoxification of free radicals, requires the active transport of cystine to the interior of the cell. The glutamate by opposing the penetration of cystine causes a reduction in the level of glutathione which leads to the death of the cell due to oxidation stress (Davis, J. B. and Maher, P., Brain Res., (1994) 652: 169-173; Murphy, T. H. et al., Neuron, (1989) 2: 1547-1558). The cells are cultured at 37° C. in a DMEM medium with 10% of foetal calf serum added to it. The tests are carried out in 96-well plates containing 5000 cells per well. The glutamate (5 mM) is added to the medium containing or not containing the products to be tested. The cell viability is tested after 24 h by the MTT method (Hansen, M. B. et al., J Immunol. Methods (1989), 119, 203-210). The ability of the compounds to protect the cells from the toxic action of the glutamate is estimated in EC50, calculated relative to the viability of cells which have not been subjected to the action of glutamate considered as 100% viability.
row,Structure (SMILES),pEC50
1,"N=C(Nc1ccc(NC(=O)CCCCC2CCSS2)cc1)c1cccs1 (stereo not shown) [Example 1, N-{4-[[(2-Thienyl)(imino)methyl]amino]phenyl}-1,2-dithiolane-3-pentanamide Hydrochloride]",> 4.52
2,"N=C(Nc1ccc(CCNC(=O)CCCCC2CCSS2)cc1)c1cccs1 (stereo not shown) [Example 2, N-{2-{4[[(2-Thienyl)(imino)methyl]amino]phenyl}ethyl}-1,2-dithiolane-3-pentanamide]",> 4.52
3,"N=C(Nc1ccc(CCNC(=O)CC2CCSS2)cc1)c1cccs1 (stereo not shown) [Example 3, N-{2-{4[[(2-Thienyl)(imino)methyl]amino]phenyl}ethyl}-1,2-dithiolane-3-acetamide Hydrochloride]",> 4.52
4,"Cc1cc(N)nc(CCCCNC(=O)CC2CCSS2)c1 (stereo not shown) [Example 5, N-[4-(6-Amino-4-methyl-2-pyridinyl)butyl]-1,2-dithiolane-3-acetamide Fumarate]",> 4.52
